Patent US7625917B2, “Thiolesters and uses thereof” (priority 1998, dated 2009)
Where two headings read alike, the source gives them in different places.

Key:
HIV-1RF = assay: XTT cytoprotection assay (antiviral activity); assay type: cell-based
Excerpt: One exemplary means to determine antiviral activity is with CEM-SS cells and virus (e.g., HIV-1RF) (MOI=0.01) using the XTT (2,3-bis[2-methoxy-4-nitro-5-sulfophenyl]-5-[(phenylamino)carbonyl]-2H-tetrazolium hydroxide) cytoprotection assay, as described by Rice (1993) PNAS 90:9721-9724, and Rice (1997) Antimicrob. Agents Chemother. 41:419-426. Briefly, cells are infected with HIV-1 RF (or other virus to be tested) in the presence of various dilutions of test compounds (thiolesters and controls). The cultures are incubated for seven days. During this time control cultures without protective compounds (i.e., compounds with anti-viral activity) replicate virus, induce syncytia, and result in about 90% cell death. The cell death is measured by XTT dye reduction. XTT is a soluble tetrazolium dye that measures mitochondrial energy output, similar to MTT. Positive controls using dextran sulfate (an attachment inhibitor) or 3′-Azido-2′-3′-dideoxythymidine, AZT (a reverse transcriptase inhibitor) are added to each assay. Individual assays are done in duplicate using a sister plate method.
Effective antiviral concentrations providing 50% cytoprotection (EC50), and cellular growth inhibitory concentrations causing 50% cytotoxicity (IC50) are calculated.

[1] = target: T1, recombinant HIV-1 NCp7 protein (Human immunodeficiency virus type 1 group M subtype B, UniProt P03347); assay: Trp37 zinc finger fluorescence (zinc ejection) assay; assay type: biochemical
T1 construct: recombinant HIV-1 NCp7 protein
Procedure: Zinc finger reactivity was measured using a Zn specific fluorochrome, TSQ, N-(6-methoxy-8-quinolyl)-p-toluenesulfonamide, assay or a Trp37 zinc finger fluorescence assay. Fluorescent measurements of the Trp37 residue in the C-terminal finger of recombinant HIV-1 NCp7 protein were performed as described by Rice (1995) Science 270:1194-1197; Rice (1997) Antimicrob. Agents Chemother. 41:419-426. Measurement of Zn ejection from both fingers was measured using the Zn-selective fluorchrome probe TSQ (Molecular Probes, Eugene Oreg.) as described by Rice (1996) J. Med. Chem 39:3606-3616. […] Briefly, 50 nM NCp7 was treated with test compounds for 1 hour at RT in […] buffer containing 10% glycerol and 50 mM Tris-HCl (pH 7.5). Labeled oligomer (0.1 picomole, end labeled [^32P] was added in an equal volume of buffer containing 10% glycerol, 50 mM Tris-HCl (pH 7.5), 400 mM KCl and 40 mM MgCl2. The reaction was continued for 15 min at room temperature, and a total of […] (or ¼ of the total reaction volume) was separated on nondenaturing 4.5% polyacrylamide gels in 0.5× Tris-Borate electrophoresis buffer. NCp7-oligomer complexes were visualized by autoradiography.
Changes in the intrinsic fluorescence of aromatic protein moieties are commonly used to monitor a reaction which involves a change in protein conformation. In the present invention, fluorescence can be used to monitor the loss of metal ion from a zinc finger, e.g., the loss of zinc from a CCHC retroviral zinc finger protein, after contact with a thiolester of the invention. The intrinsic fluorescence of Trp37 in the second zinc finger of HIV-1 NC protein has been used to monitor nucleic acid binding and conformation of the zinc finger complex (see, Summers (1992) supra).
Zinc ejection is measured by the ability of compounds to chemically attack the cysteines in purified NCp7 protein resulting in a loss of fluorescence due to the. movement of the tryptophan 37 residue […] position on the protein. Zinc ejection is measured and expressed as either percent decrease in total fluorescence or decrease in relative fluorescence units per min during a 30 min assay (RFU/min). A thiolester is considered within the scope of the invention if any amount of zinc ejection is detected.

CEM-SS cells = assay: cells; assay type: cell-based; conditions: for cellular toxicity (in words): high test dose of 316 μM
Procedure: Agents Chemother. […] Briefly, cells are infected with HIV-1 RF (or other virus to be tested) in the presence of various dilutions of test compounds (thiolesters and controls). The cultures are incubated for seven days. […] The cell death is measured by XTT dye reduction. XTT is a soluble tetrazolium dye that measures mitochondrial energy output, similar to MTT. Positive controls using dextran sulfate (an attachment inhibitor) or 3′-Azido-2′-3′-dideoxythymidine, AZT (a reverse transcriptase inhibitor) are added to each assay. Individual assays are done in duplicate using a sister plate method.

[2] = Table 3, average decrease in relative fluorescence
[3] = Table 3, 50% cytotoxicity, read-out: IC50
[4] = Table 10, average decrease in relative fluorescence units over 30 min
[5] = Table 10, 50% cytotoxicity, read-out: IC50
[6] = Table 5, average decrease in relative fluorescence units over 30 min
[7] = Table 5, 50% cytotoxicity, read-out: IC50
[8] = read-out: EC50 (concentration inhibiting 50% virus replication)

O=C(CCCCBr)Sc1ccccc1C(=O)Nc1ccc(S(=O)(=O)c2ccc([N+](=O)[O-])cc2)cc1 [Compound 46]
EC50 (HIV-1RF; Table 6, read-out: EC50 %): 1.6 µM
Zinc Finger Reactivity RFU/min ([1]; Table 6, average decrease in relative fluorescence units over 30 min): 1 RFU/min
IC50 (CEM-SS cells; Table 6, 50% cytotoxicity, read-out: IC50): 21.7 µM

O=C(Nc1ccc(S(=O)(=O)c2ccc(NC(=O)c3ccccc3SSc3ccccc3C(=O)Nc3ccc(S(=O)(=O)c4ccc(NC(=O)c5ccc([N+](=O)[O-])cc5)cc4)cc3)cc2)cc1)c1ccc([N+](=O)[O-])cc1 [Compound 32 D]
EC50 (HIV-1RF; Table 3, read-out: EC50): 78 µM
Zinc Finger Reactivity RFU/min [1, 2]: 2.9 RFU/min
IC50 (CEM-SS cells; [3]): > 316 µM

O=c1c2ccccc2sn1-c1ccc(S(=O)(=O)c2ccc(NS(=O)(=O)Cc3ccccc3[N+](=O)[O-])cc2)cc1 [Compound 34 BITA]
antiviral activity (in words) (HIV-1RF): significant antiviral activity
EC50 (HIV-1RF; Table 3, read-out: EC50): 3.2 µM
Zinc Finger Reactivity RFU/min [1, 2]: 2 RFU/min
IC50 (CEM-SS cells; [3]): 59.5 µM

CC(=O)NS(=O)(=O)c1ccc(NC(=O)c2ccccc2NC(=O)CCCC[n+]2ccccc2)cc1 [Compound 56]
antiviral activity (in words) (HIV-1RF): inactive
Zinc Finger Reactivity RFU/min [1, 4]: 2.6 RFU/min
IC50 (CEM-SS cells; [5]): >316 µM

CC(=O)NS(=O)(=O)c1ccc(NC(=O)c2ccccc2NC(=O)CCl)cc1 [Compound 39]
antiviral activity (in words) (HIV-1RF): completely inactive
Zinc Finger Reactivity RFU/min [1, 6]: 0.3 RFU/min
IC50 (CEM-SS cells; [7]): 202 µM

NS(=O)(=O)c1ccc(NC(=O)CNC(=O)c2ccccc2SSc2ccccc2C(=O)NCC(=O)Nc2ccc(S(N)(=O)=O)cc2)cc1 [Compound 25 D, N,N′-(2,2′-dithiodibenzoyl)-bis-4-(glycinamido)benzenesulfonamide]
EC50 (HIV-1RF; Table 2, read-out: EC50): 1.6 µM
zinc finger reactivity / zinc ejection rate [1]: 7.9 RFU/min
IC50 (CEM-SS cells; Table 2, 50% cytotoxicity, read-out: IC50): 17.6 µM

NS(=O)(=O)c1ccc(CNC(=O)c2ccccc2SSc2ccccc2C(=O)NCc2ccc(S(N)(=O)=O)cc2)cc1 [Compound 23 D, N,N′-(2,2′-dithiodibenzoyl)-bis-4-(aminomethyl)benzene-sulfonanide]
EC50 (HIV-1RF; Table 2, read-out: EC50): 0.33 µM
zinc finger reactivity / zinc ejection rate [1]: 3.3 RFU/min
IC50 (CEM-SS cells; read-out: toxicity / IC50): 19.4 µM

COc1ccc(C(=O)Sc2ccccc2C(=O)Nc2ccc(S(=O)(=O)NC(C)=O)cc2)cc1 [Compound 42]
EC50 (HIV-1RF; Table 5, read-out: EC50): 2.8 µM
Zinc Finger Reactivity RFU/min [1, 6]: 3.5 RFU/min
IC50 (CEM-SS cells; [7]): 43.7 µM
IC50 (CEM-SS cells; read-out: IC50 range): ~50 µM

CC(=O)NS(=O)(=O)c1ccc(NC(=O)c2ccccc2SC(=O)CCC[n+]2ccccc2)cc1 [Compound 54]
EC50 (HIV-1RF; Table 10, read-out: EC50 %): 10.1 µM
Zinc Finger Reactivity RFU/min [1, 4]: 2.2 RFU/min
IC50 (CEM-SS cells; [5]): 175 µM

O=C(Nc1ccc(S(=O)(=O)c2ccc(NS(=O)(=O)Cc3ccccc3[N+](=O)[O-])cc2)cc1)c1ccccc1SSc1ccccc1C(=O)Nc1ccc(S(=O)(=O)c2ccc(NS(=O)(=O)Cc3ccccc3[N+](=O)[O-])cc2)cc1 [Compound 34 D]
antiviral activity (in words) (HIV-1RF): significant antiviral activity
EC50 (HIV-1RF; [8]): 12.3 µM
Zinc Finger Reactivity RFU/min [1, 2]: 1.5 RFU/min
IC50 (CEM-SS cells; [3]): > 316 µM
cellular toxicity (in words) (CEM-SS cells): no toxicity

Nc1ccc(S(=O)(=O)c2ccc(NC(=O)c3ccccc3SSc3ccccc3C(=O)Nc3ccc(S(=O)(=O)c4ccc(N)cc4)cc3)cc2)cc1 [Compound 26 D]
EC50 (HIV-1RF; Table 3, read-out: EC50): 4.3 µM
EC50 (HIV-1RF; [8]): 4.3 µM
zinc finger reactivity / zinc ejection rate [1]: 3.3 RFU/min
Zinc Finger Reactivity RFU/min [1, 2]: 3.3 RFU/min
IC50 (CEM-SS cells; [3]): < 316 µM

CC(=O)Nc1ccc(S(=O)(=O)Nc2ccc(S(=O)(=O)c3ccc(NC(=O)c4ccccc4SSc4ccccc4C(=O)Nc4ccc(S(=O)(=O)c5ccc(NS(=O)(=O)c6ccc(NC(C)=O)cc6)cc5)cc4)cc3)cc2)cc1 [Compound 28 D]
EC50 (HIV-1RF; Table 3, read-out: EC50): 1 µM
Zinc Finger Reactivity RFU/min [1, 2]: 5.9 RFU/min
IC50 (CEM-SS cells; [3]): 12.7 µM

O=C(Nc1ccc(S(=O)(=O)c2ccc([N+](=O)[O-])cc2)cc1)c1ccccc1SSc1ccccc1C(=O)Nc1ccc(S(=O)(=O)c2ccc([N+](=O)[O-])cc2)cc1 [Compound 31 D]
EC50 increase vs compound 26 (HIV-1RF): 2.6 fold
EC50 (HIV-1RF; [8]): 12.2 µM
Zinc Finger Reactivity RFU/min [1, 2]: 2.9 RFU/min
IC50 (CEM-SS cells; [3]): > 316 µM
cellular toxicity (in words) (CEM-SS cells): non-toxic
cellular toxicity (in words) (CEM-SS cells; listed as 31): no toxicity
